# Experimental data published in paper PMC7926793, “Synthesis and Biological Evaluation of 1-(Diarylmethyl)-1H-1,2,4-triazoles and 1-(Diarylmethyl)-1H-imidazoles as a Novel Class of Anti-Mitotic Agent for Activity in Breast Cancer” (Pharmaceuticals, 2021).
# “And” between values parts separate entries of the source, which are not always exact repeats. Equal values may be shown once. Read-outs that look alike come from different tables or passages of the source.
# Columns and labels:
# [1] = tested on: MCF-7 human breast cancer cells; experiment: alamarBlue cell viability assay; type: cell-based; details: Homo sapiens, 72 h; for viability at 1 µM: MCF7, read-out: cell viability (viable cells)
# Protocol: (§1) The human breast carcinoma cell line MCF-7 was purchased from the European Collection of Animal Cell Cultures (ECACC) and cultured in Eagles minimum essential medium with 10% foetal bovine serum, 2 mM L-glutamine, and 100 μg/mL penicillin/streptomycin. The medium was supplemented with 1% non-essential amino acids. The human breast carcinoma cell line MDA-MB-231 was purchased from the ECACC. MDA-MB-231 cells were maintained in Dulbecco’s modified Eagle’s medium (DMEM) supplemented with 10% (v/v) foetal bovine serum, 2 mM L-glutamine, and 100 μg/mL penicillin/streptomycin (complete medium). HL-60 cells were derived from a patient with acute myeloid leukaemia and were obtained from the ECACC (Salisbury, UK). Cells were cultured in RPMI-1640 Glutamax medium supplemented with 10% FCS media and 100 μg/mL penicillin/streptomycin. MCF-10A cells were obtained as a kind gift from Dr Susan McDonnell, School of Chemical and Bioprocess Engineering, University College Dublin and were cultured in Dulbecco’s Modified Eagle Medium: Nutrient Mixture F-12 (DMEM/F12; Gibco) supplemented with 5% horse serum (Invitrogen), 20 ng mL^−1 epidermal growth factor (Merck Millipore), 0.5 μg mL^−1 hydrocortisone (Sigma,-Aldrich, Arklow, Co. Wicklow, Ireland), 100 ng mL^−1 cholera toxin (Sigma, Aldrich, Arklow, Co. Wicklow, Ireland), 10 μg mL^−1 insulin (Sigma, Aldrich, Arklow, Co. Wicklow, Ireland), and penicillin/streptomycin 5000 U mL^−1 (1%)(Gibco, Biosciences, 3 Charlemont Terrace, Crofton Road, Dun Laoghaire, Co Dublin, A96 K7H7, Ireland). Cells were maintained at 37 °C in 5% CO2 in a humidified incubator. All cells were sub-cultured 3 times/week by trypsinisation using TrypLE Express (1×).
# (§2) Cells were seeded at a density of 2.5 × 10^4 cells/well (MCF-7, MDA-MB-231, MCF-10A cells) and 1 × 10^4 cells/well (HL-60) in 96-well plates (200 μL per well). After 24 h, cells were then treated with either medium alone, vehicle control (1% ethanol (v/v)) or with serial dilutions of CA-4 (4a), phenstatin (7a) or selected compounds (0.001–100 μM) in triplicate. Cell proliferation for MCF-7, MDA-MB-231, and MCF-10A cells was analysed using the alamarBlue assay (Invitrogen Corp.) according to the manufacturer’s instructions. After 67–69 h, alamarBlue (10% (v/v)) was added to each well, and plates were incubated for 3–5 h at 37 °C in the dark. Fluorescence was read using a 96-well fluorimeter with excitation at 530 nm and emission at 590 nm. Results were expressed as percentage viability relative to vehicle control (100%).
# [2] = tested on: MDA-MB-231 human breast cancer cells; experiment: alamarBlue cell viability assay; type: cell-based; details: read-out: Antiproliferative Activity MDA-MB-231 Cells IC50
# Protocol: as §1, §2
# [3] = toxicity evaluation, alamarBlue assay; type: cell-based, human; details: human, MCF-10A cells
# IGROV1 = experiment: NCI 60 cell line screen (Ovarian Cancer); type: cell-based, human; details: for Growth percentage: IGROV1, single dose 10 µM
# UO-31 = experiment: NCI 60 cell line screen (Renal Cancer); type: cell-based, human; details: for Growth percentage: UO-31, single dose 10 µM
# HOP-92 = experiment: NCI 60 cell line screen (Non-Small Cell Lung Cancer); type: cell-based, human; details: for Growth percentage: HOP-92, single dose 10 µM
# PC-3 = experiment: NCI 60 cell line screen (Prostate cancer); type: cell-based, human; details: for Growth percentage: PC-3, single dose 10 µM
# A549/ATCC = experiment: NCI 60 cell line screen (Non-Small Cell Lung Cancer); type: cell-based, human; details: for Growth percentage: single dose 10 µM
# KM12 = experiment: NCI 60 cell line screen (Colon Cancer); type: cell-based, human; details: for Growth percentage: KM12, single dose 10 µM
# BT-549 = experiment: NCI 60 cell line screen (Breast Cancer); type: cell-based, human; details: for Growth percentage: BT-549, single dose 10 µM
# HS 578T = experiment: NCI 60 cell line screen (Breast Cancer); type: cell-based, human; details: for Growth percentage: single dose 10 µM
# NCI-H460 = experiment: NCI 60 cell line screen (Non-Small Cell Lung Cancer); type: cell-based, human; details: for Growth percentage: NCI-H460, single dose 10 µM
# SK-OV-3 = experiment: NCI 60 cell line screen (Ovarian Cancer); type: cell-based, human; details: for Growth percentage: SK-OV-3, single dose 10 µM
# SN12C = experiment: NCI 60 cell line screen (Renal Cancer); type: cell-based, human; details: for Growth percentage: single dose 10 µM
# OVCAR-3 = experiment: NCI 60 cell line screen (Ovarian Cancer); type: cell-based, human; details: for Growth percentage: OVCAR-3, single dose 10 µM
# SF539 = experiment: NCI 60 cell line screen (CNS Cancer); type: cell-based, human; details: for Growth percentage: SF539, single dose 10 µM
# HT29 = experiment: NCI 60 cell line screen (Colon Cancer); type: cell-based, human; details: for Growth percentage: HT29, single dose 10 µM
# UACC-62 = experiment: NCI 60 cell line screen (Melanoma); type: cell-based, human; details: for Growth percentage: UACC-62, single dose 10 µM
# LOX IMV1 = experiment: NCI 60 cell line screen (Melanoma); type: cell-based, human; details: for Growth percentage: LOX IMV1, single dose 10 µM
# CCRF-CEM = experiment: NCI 60 cell line screen (Leukemia); type: cell-based, human; details: for Growth percentage: single dose 10 µM
# SF295 = experiment: NCI 60 cell line screen (CNS Cancer); type: cell-based, human; details: for Growth percentage: SF295, single dose 10 µM
# RPMI-8226 = experiment: NCI 60 cell line screen (Leukemia); type: cell-based, human; details: for Growth percentage: RPMI-8226, single dose 10 µM
# U251 (AC in Table 3) = experiment: NCI 60 cell line screen (CNS Cancer); type: cell-based, human; details: for Growth percentage: U251, single dose 10 µM
# SR = experiment: NCI 60 cell line screen (Leukemia); type: cell-based, human; details: single dose 10 µM
# [4] = 1 μM, 72 h, read-out: percentage of viable cells
smiles,measurement,setting,value
COc1ccc(C(c2cc(OC)c(OC)c(OC)c2)n2nccn2)cc1O (stereo not drawn) [compound 24],IC50,"[1]; MCF7, 72 h, alamarBlue, read-out: Antiproliferative Activity MCF-7 Cells IC50",52 ± 40 nM
same,viability at 1 µM,[1],27%
same,IC50,"[2]; Homo sapiens, MDA-MB-231, 72 h",74 ± 30 nM
same,"viability at 72 h, 0.1 µM","[3]; 0.1 μM, 72 h, read-out: percentage of viable cells",96%
same,"viability at 72 h, 1 µM",[3]; [4],71%
same,"viability at 72 h, 10 µM","[3]; 10 μM, 72 h, read-out: percentage of viable cells",61%
"COc1ccc(C(c2cc(OC)c(OC)c(OC)c2)n2cncn2)cc1O (stereo not drawn) [19e, 5-((1H-1,2,4-Triazol-1-yl)(3,4,5-Trimethoxyphenyl)methyl)-2-Methoxyphenol]",viability at 1 µM,[1],29%
same,IC50,[2]; 72 h,978 ± 130 nM
same,IC50,"[2]; Homo sapiens, MDA-MB-231, 72 h",980 nM
same,"viability at 48 h, 0.4 µM","[3]; 0.4 μM, 48 h",~100%
same,"viability at 48 h, 0.5 µM","[3]; 0.5 μM, 48 h",~100%
same,"viability at 24 h, 1 µM","[3]; 1 μM, 24 h, read-out: cell viability",99%
same,"viability at 48 h, 1 µM","[3]; 1 μM, 48 h, read-out: percentage of viable cells",> 94%
same,"viability at 72 h, 1 µM",[3]; [4],> 80%
same,"viability at 48 h, 10 µM","[3]; 10 μM, 48 h, read-out: percentage of viable cells",~30%
same,GI50,"IGROV1; Homo sapiens, IGROV-1, IGROV1, NCI 5 dose assay",959 nM
same,Growth percentage,IGROV1,49.22%
same,GI50,"UO-31; Homo sapiens, UO-31, NCI 5 dose assay",903 nM
same,Growth percentage,UO-31,57.96%
same,Growth percentage,HOP-92,43.92%
same,GI50,"HOP-92; Homo sapiens, HOP-92, NCI 5 dose assay",9690 nM
same,GI50,"PC-3; Homo sapiens, PC-3, NCI 5 dose assay",431 nM
same,Growth percentage,PC-3,21.20%
same,GI50,"A549/ATCC; Homo sapiens, NCI 5 dose assay",969 nM
same,Growth percentage,A549/ATCC,18.6%
same,GI50,"KM12; Homo sapiens, KM12, NCI 5 dose assay",418 nM
same,Growth percentage,KM12,21.79%
same,Growth percentage,BT-549,11.30%
same,GI50,"BT-549; Homo sapiens, BT-549, NCI 5 dose assay",618 nM
same,GI50,"HS 578T; Homo sapiens, NCI 5 dose assay",548 nM
same,Growth percentage,HS 578T,31.34%
same,GI50,"NCI-H460; Homo sapiens, NCI-H460, NCI 5 dose assay",414 nM
same,Growth percentage,NCI-H460,9.82%
same,GI50,"SK-OV-3; Homo sapiens, SK-OV-3, NCI 5 dose assay",402 nM
same,Growth percentage,SK-OV-3,20.25%
same,GI50,"SN12C; Homo sapiens, NCI 5 dose assay",853 nM
same,Growth percentage,SN12C,39.32%
same,GI50,"OVCAR-3; Homo sapiens, OVCAR-3, NCI 5 dose assay",323 nM
same,Growth percentage,OVCAR-3,1.74%
same,GI50,"SF539; Homo sapiens, SF-539, SF539, NCI 5 dose assay",300 nM
same,Growth percentage,SF539,9.34%
same,Growth percentage,HT29,5.30%
same,GI50,"HT29; Homo sapiens, HT-29, HT29, NCI 5 dose assay",330 nM
same,GI50,"UACC-62; Homo sapiens, UACC-62, NCI 5 dose assay",550 nM
same,Growth percentage,UACC-62,32.04%
same,GI50,"LOX IMV1; Homo sapiens, LOX IMV1, NCI 5 dose assay",523 nM
same,Growth percentage,LOX IMV1,43.48%
same,GI50,"CCRF-CEM; Homo sapiens, NCI 5 dose assay",402 nM
same,Growth percentage,CCRF-CEM,9.32%
same,GI50,"SF295; Homo sapiens, SF-295, SF295, NCI 5 dose assay",325 nM
same,Growth percentage,SF295,2.56%
same,GI50,"RPMI-8226; Homo sapiens, RPMI-8226, NCI 5 dose assay",452 nM
same,Growth percentage,RPMI-8226,20.71%
same,GI50,"U251 (AC in Table 3); Homo sapiens, U-251, cell line printed AC, NCI 5 dose assay",446 nM
same,Growth percentage,U251 (AC in Table 3),15.32%
COc1ccc(C(c2cc(OC)c(OC)c(OC)c2)N2CCN(Cc3ccccc3)CC2)cc1 (stereo not drawn) [27d],Growth percentage,IGROV1,62.96%
same,Growth percentage,UO-31,68.80%
same,Growth percentage,HOP-92,70.59%
same,Growth percentage,PC-3,59.28%
same,Growth percentage,A549/ATCC,78.38%
same,Growth percentage,KM12,40.62%
same,Growth percentage,BT-549,92.41%
same,Growth percentage,HS 578T,59.07%
same,Growth percentage,NCI-H460,74.38%
same,Growth percentage,SR,16.10%
same,Growth percentage,SK-OV-3,66.24%
same,Growth percentage,SN12C,88.36%
same,Growth percentage,OVCAR-3,68.96%
same,Growth percentage,SF539,81.24%
same,Growth percentage,HT29,28.31%
same,Growth percentage,UACC-62,49.44%
same,Growth percentage,LOX IMV1,67.02%
same,Growth percentage,CCRF-CEM,68.76%
same,Growth percentage,SF295,68.71%
same,Growth percentage,RPMI-8226,84.15%
same,Growth percentage,U251 (AC in Table 3),62.75%
"COc1ccc(C(c2cc(OC)c(OC)c(OC)c2)N2CCCCC2)cc1 (stereo not drawn) [26b, 1-((4-Methoxyphenyl)(3,4,5-Trimethoxyphenyl)Methyl)Piperidine]",viability at 1 µM,[1],78%
same,Growth percentage,IGROV1,47.13%
same,Growth percentage,UO-31,48.76%
same,Growth percentage,HOP-92,44.15%
same,Growth percentage,PC-3,25.08%
same,Growth percentage,A549/ATCC,49.14%
same,Growth percentage,KM12,30.23%
same,Growth percentage,BT-549,49.73%
same,Growth percentage,HS 578T,16.61% and 16.6%
same,Growth percentage,NCI-H460,19.38%
same,Growth percentage,SR,18.46%
same,Growth percentage,SK-OV-3,16.68%
same,Growth percentage,SN12C,54.32%
same,Growth percentage,OVCAR-3,8.29%
same,Growth percentage,SF539,27.71%
same,Growth percentage,HT29,7.93%
same,Growth percentage,UACC-62,18.17%
same,Growth percentage,LOX IMV1,36.34%
same,Growth percentage,CCRF-CEM,29.91%
same,Growth percentage,SF295,18.75%
same,Growth percentage,RPMI-8226,41.20%
same,Growth percentage,U251 (AC in Table 3),26.12%
COc1ccc(C(c2cc(OC)c(OC)c(OC)c2)N2CCCC2)cc1 (stereo not drawn) [25g],viability at 1 µM,[1],82%
same,Growth percentage,IGROV1,82.87%
same,Growth percentage,UO-31,75.13%
same,Growth percentage,HOP-92,85.48%
same,Growth percentage,PC-3,63.89%
same,Growth percentage,A549/ATCC,77.65%
same,Growth percentage,KM12,43.91%
same,Growth percentage,BT-549,81.58%
same,Growth percentage,HS 578T,80.45%
same,Growth percentage,NCI-H460,84.31%
same,Growth percentage,SR,23.87%
same,Growth percentage,SK-OV-3,77.46%
same,Growth percentage,SN12C,108.47%
same,Growth percentage,OVCAR-3,66.63%
same,Growth percentage,SF539,95.69%
same,Growth percentage,HT29,40.59%
same,Growth percentage,UACC-62,57.35%
same,Growth percentage,LOX IMV1,72.96%
same,Growth percentage,CCRF-CEM,71.21%
same,Growth percentage,SF295,69.71%
same,Growth percentage,RPMI-8226,97.42%
same,Growth percentage,U251 (AC in Table 3),77.78%
